Here are results for 12 compounds from patent US20090318403A1, “ANTIBIOTIC COMPOSITION” (Prosensa Technologies B.V., priority 2006, published 2009).

Where two headings read alike, the source gives them in different places. Bounds are passed on as bounds.

Type in all cases: cell-based
In test [1] the test system is Pseudomonas aeruginosa PA01. Kind of test: Growth inhibition (MIC, OD550 after 20 h) of P. aeruginosa PA01. Conditions: for MIC of antibiotic alone: antibiotic alone (Table 1); for MIC of antibiotic: PA01, inoculum 10^4 bacteria in 20% LB, after 20 h, antibiotic alone (Table 3); for MIC: Pseudomonas aeruginosa.
The subject of test [2] is P. aeruginosa clinical isolate PA7243. Kind of test: Growth inhibition (MIC) of clinical P. aeruginosa isolate PA7243. Particulars: Pseudomonas aeruginosa, isolate PA7243, 10^4 bacteria in 20% LB, 20 h.
For test [3], the system named is P. aeruginosa clinical isolate PA7252. Kind of test: Growth inhibition (MIC) of clinical P. aeruginosa isolate PA7252. Conditions: Pseudomonas aeruginosa, isolate PA7252, 10^4 bacteria in 20% LB, 20 h.
Test [4] has as its system P. aeruginosa clinical isolate PA7249. Kind of test: Growth inhibition (MIC) of clinical P. aeruginosa isolate PA7249. Particulars: Pseudomonas aeruginosa, isolate PA7249, 10^4 bacteria in 20% LB, 20 h.
The test system of test [5] is P. aeruginosa clinical isolate PA7247. Kind of test: Growth inhibition (MIC) of clinical P. aeruginosa isolate PA7247. Particulars: Pseudomonas aeruginosa, isolate PA7247, 10^4 bacteria in 20% LB, 20 h.
Test [6] deals with multidrug-resistant Acinetobacter baumannii LUH5771. Kind of test: Growth inhibition of multidrug-resistant A. baumannii LUH5771. Conditions: for Susceptibility of the isolate to treatment: multi-resistant A. baumannii clinical isolate.
In test [7] the test system is P. aeruginosa clinical isolate PA7253. Kind of test: Growth inhibition (MIC) of clinical P. aeruginosa isolate PA7253. Conditions: Pseudomonas aeruginosa, isolate PA7253, 10^4 bacteria in 20% LB, 20 h.
A short description of test [8]: Sensitizer effect of short lipoamines (our studies). The text has this:
R1 in formula I represents a linear or branched alkyl group comprising at least 7 atoms in a straight chain. In this context alkyl group means that it is a group containing carbon atoms. For instance, for the lipoamines butylamine, pentylamine and hexylamine as disclosed in JP 57155954 no effect was found in our studies. It is understood that if not specified otherwise, C, O, N and S atoms in the alkyl group further comprise hydrogen atoms to properly satisfy the valency of the respective atom. At least 7 atoms in a straight chain is with respect to the longest group of atoms, not including hydrogen, directly connected to one another by covalent bonds starting from the nitrogen (N) in formula I. Such a group of at least 7 atoms in a straight chain thus can be part of cyclic elements, including aromatic rings, in R1, or in other words, one or more (saturated and/or unsaturated) rings can form (part of) the alkyl group comprising at least 7 atoms in a straight chain. The alkyl group may comprise one or more O, N and/or S atoms, which means that the chain of carbon atoms may be interrupted by one or more O, N and/or S atoms. It is preferred the alkyl group comprises an ω-CH3 group, or in other words starting from the nitrogen (N) in formula I the longest alkyl group preferably ends with a CH3.

Test [9] relates to ceftazidime-resistant P. aeruginosa clinical isolate PA 24-7-3. The experiment in a line: Growth inhibition (MIC) of ceftazidime-resistant P. aeruginosa PA 24-7-3. Particulars: Pseudomonas aeruginosa, PA 24-7-3, 20% LB.
Test [10] has as its system extended β-lactamase (ESBL) producing Klebsiella pneumoniae LUH5344. Kind of test: Growth inhibition (MIC) of ESBL producing K. pneumoniae LUH5344. Particulars: K. pneumoniae LUH5344, 100% LB.
Where [11] appears, read: PA01, 20% LB, 20 h, sensitizer alone.

A word on the MIC: it is the smallest concentration in the dilution series that meets the test's criterion for growth inhibition. For `CC1(C)S[C@@H]2[C@H](NC(=O)[C@H](N)c3ccccc3)C(=O)N2[C@H]1C(=O)O` [ampicillin], the “MIC of antibiotic alone” value in [1] (PA01, 20% LB, 20 h) is given as “MIC >200 μg/mL”. The MIC of antibiotic in [1] was above 200 µg/mL. The MIC in [2] (read-out: MIC ampicillin), in test [3] (read-out: MIC ampicillin), in test [4] (read-out: MIC ampicillin), in test [5] (read-out: MIC ampicillin) and in test [7] (read-out: MIC ampicillin) was above 200 µg/mL in each case. The “Susceptibility of the isolate to treatment” value (“Susceptibility of the isolate” for short) in [6] is “resistant”.
On to `CCCCN` [butylamine], for which the “Sensitizer effect” value in test [8] is “no effect”.
Regarding `CC(C)(O/N=C(\C(=O)N[C@@H]1C(=O)N2C(C(=O)[O-])=C(C[n+]3ccccc3)CS[C@H]12)c1csc(N)n1)C(=O)O` [ceftazidime], the MIC in test [9] (read-out: MIC ceftazidime) and in test [10] (read-out: MIC ceftazidime) was 6.25 µg/mL throughout.
For the compound `CC(C)c1ccc2c(c1)CC[C@H]1[C@](C)(CN)CCC[C@]21C` [dehydroabietylamine], the “MIC of sensitizer alone” value in test [1] (setting [11]) was “MIC at ≧20 μM”.
Regarding `CCCCCCN` [hexylamine], the “Sensitizer effect” value in [8] is “no effect”.
Consider `CC(=O)NC[C@H]1CN(c2ccc(N3CCOCC3)c(F)c2)C(=O)O1` [linezolid], for which the “MIC of antibiotic alone” value in [1] (PA01, 20% LB, 20 h) was “MIC >200 ug/mL μg/mL”.
Turning to `CCn1cc(C(=O)O)c(=O)c2ccc(C)nc21` [nalidixic acid], in test [1], the MIC of antibiotic turned out to be 25 µg/mL.
Regarding `CCCCCCCC/C=C\CCCCCCCCN` [oleylamine], the minimal inhibitory concentration (MIC) was at least 20 µM in test [9] (read-out: MIC oleylamine); at least 20 µM in test [1] (setting [11]); above 40 µM in test [2] (read-out: MIC oleylamine); at least 40 µM in test [3] (read-out: MIC oleylamine); above 40 µM in [4] (read-out: MIC oleylamine); at least 40 µM in test [5] (read-out: MIC oleylamine). In addition, the MIC in [10] (read-out: MIC oleylamine) was at least 40 µM; in test [7] (read-out: MIC oleylamine), above 40 µM. Besides, the oleylamine bactericidal concentration result in test [6] (A. baumannii LUH5771, oleylamine alone) was “at ≧5 μM”. In [6], the “Susceptibility of the isolate” value is recorded as “resistant”.
As for `CCCCCN` [pentylamine], the “Sensitizer effect” value in [8] is “no effect”.
On to `CCCCCCCCCCCCCCCCCCN` [stearylamine], for which the MIC in test [1] (setting [11]) was at least 20 µM.
For `CC/C(=C(\c1ccccc1)c1ccc(OCCN(C)C)cc1)c1ccccc1` [tamoxifen], the MIC in test [1] (setting [11]) was at least 20 µM.
Consider gentamicin, for which the MIC gentamicin in [6] (A. baumannii LUH5771, gentamicin alone) was above 200 µg·mL. In addition, the “Susceptibility of the isolate” value in test [6] was “resistant”.
